Assay results: patent publication US4789681A, “Cytoprotective guanidine derivatives useful in ischemic diseases” (Italfarmaco S.p.A., priority 1985, dated 1988)

How the values were obtained:
rat (cerebral ischemia) = assay: In vivo activity in the rat: cerebral ischemia, EEG recovery; conditions: 3 mg/kg i.v., 10' before test
Procedure: The model described by Kramer (Kramer W., Tuynmann J. A.; Brain Research 6, 686 (1967)) has been used.
Two electrodes for the bipolar recording of EEG (occipito-cervical and cerebellar area) were applied to rats, anaesthetized with N2 O (70%) and O2 (30%), after i.v. tubocurarine treatment. Ischemia was induced by increasing the intracranial pressure in cisterna magna with artificial C.S.F. and for the duration of 1 minute. EEG was recorded 3' before ischemia, during the first 6 minutes of the recirculation and up to 30' after ischemia. The time for a complete EEG recovering was measured.
The compounds were administered i.v. 10' before test.

rat (cardiac ischemia) = assay: In vivo activity in the rat: cardiac ischemia and reperfusion by ligation of the left coronary artery; conditions: iv, 3 mg/kg, 10' to 30' before ligation
Description: It has been used a cardiac ischemia and reperfusion model, on the anaesthetized rat, by ligation of the left coronary artery as described by C. […] In said model, after the ischemic state induced by the coronary ligation, the reperfusion of the cardiac tissue follows the release of the ligation itself. In said situation tachycardias, extrasystoles ventricular fibrillations are observed, followed, in most cases, by the animal's death.
This applies in both situation: hypoxia and reperfusion.

Structure (SMILES)	EEG recovery time (rat (cerebral ischemia))	other results
COC(=O)[C@H](N)CCCNC(=N)N [D.A.M., Darginine methylester, reference compound]	45 ± 6 s	
COC(=O)[C@H](N)CCNNC(=N)N [4a(R), methyl-(R)-2-amino-4-guanidylamino-butyrrate]	58 ± 7 s	
COC(=O)[C@@H](N)[C@H]1CC[C@@H](NC(=N)N)CC1 [7a(S), Methyl (S) (1',4' cis or trans)-2-amino-2-(4'-guanidinocyclohexyl)-acetate]	43 ± 5 s	
COC(=O)[C@H](N)c1ccc(NC2=NCCN2)cc1 (single isomer, unassigned) [10a(R), Methyl (R) or (S) 2-amino-2-(4'-imidazolinyl-amino-phenilacetate]	62 ± 8 s	
COC(=O)[C@H](N)[C@H]1CC[C@@H](NC(=N)N)CC1 [7a(R), Methyl (R) (1',4' cis or trans)-2-amino-2-(4'-guanidinocyclohexyl)-acetate]	49 ± 6 s	
COC(=O)[C@@H](N)CCCNC(=N)N [L.A.M., Larginine methylester, reference compound]	61 ± 8 s	
CN=C(N)NCCC[C@@H](N)C(=O)OC [2b(R), (R)-N^G -methyl-arginine methylester]		% effects (with respect to controls in the same situation) on death-rate (rat (cardiac ischemia)): 10%; % effects (with respect to controls in the same situation) on fibrillations (rat (cardiac ischemia)): 50%; % effects (with respect to controls in the same situation) on tachycardia V. (rat (cardiac ischemia)): 60%
